# Where a name gives a salt, the structure may show the parent alone.
# What was measured:
# [1] = Hypothermia in mice after subcutaneous injection; assay type: in vivo; settings: Mus musculus, sc, dose depressing body temperature by 2° C. in two of four mice
# Protocol: Starting with a dose of 30 mg/kg, four mice are injected subcutaneously with test compound. Twenty minutes later, the number of animals whose body temperature has decreased by 2° C. or more are counted. […] The time for last statistically significant drug affect on mean body temperature is indicated in minutes. […] Potency is given as mg/kg ED50 (dose required to depress temperature in two of four mice) as measured by Spearman-Karber statistics.
# [2] = cited from earlier work
# 5-HT receptor = settings: J. Med. Chem., 30, 2105 (1987); cited from earlier work
# dopamine receptors = settings: background; cited from earlier work
# [3] = background, cited from earlier work
structure (smiles),measurement,setting,value
"C=CCN[C@H]1CCc2cccc(OC)c2[C@H]1CC=C (relative stereo) [Example 26, Compound 1, Cis-(±)-1,2,3,4-Tetrahydro-8-methoxy-N,1-di-(2-pro-penyl)-2-naphthalenamine Hydrochloride]",ED50,[1],2.31 mg/kg
"CN(C)C1CCc2ccc(O)cc2C1(C)C (stereo not drawn) [1,1-Dimethyl-2-(N,N-dimethylamino)-7-hydroxytetralin]",analgesic and intestinal activity,"[2]; Chem. Ab., 79: 146294b",analgesic and intestinal movement accelerating actions
COc1cccc2c1CCC(NC1CC1)C2C (stereo not drawn) [1-methyl-2-(cyclopropylamino)-5-methoxytetralin],local anesthetic activity,"[2]; J. Pharm. Sci., 67, 880-82 (1978)",local anesthetic activity
CCCN(CCC)C1CCc2cccc(O)c2C1C (stereo not drawn) [8-hydroxy-1-methyl-2-(di-n-propylamino)tetralins],5-HT receptor agonism,5-HT receptor,5-HT receptor agonists
O=C1CC2(CCCC2)CC(=O)N1CCCCN1CCN(c2ncccn2)CC1 [Buspirone],dopamine receptor activity,dopamine receptors,antagonizes dopamine receptors at the same dose it stimulates 5-HT1A receptors
CC1(C)CC(=O)N(CCCCN2CCN(c3ncccn3)CC2)C(=O)C1 [Gepirone],anxiolytic / anti-anxiety activity,[3]; clinical,clinically demonstrated anti-anxiety activities
same,effect on depressive endpoints,[3]; some patients,ameliorative effects on some depressive endpoints in some patients
same,dopamine receptor activity,dopamine receptors,also has dopamine antagonist properties
CN1CCc2cccc3c2[C@H]1Cc1ccc(O)c(O)c1-3 [apomorphine],dopamine receptor activity,dopamine receptors,able to activate the dopamine autoreceptors as well as the post synaptic dopamine receptors
